# How the values were obtained:
# [1] = system: cancerous tissues; experiment: Accumulability to cancerous tissues and excretion from normal tissues (general findings); assay type: in vivo
# [2] = Stability in vivo and in vitro
# [3] = Water solubility; assay type: physicochemical
# [4] = system: HeLa cells; experiment: HeLa cell survival after diode laser (670 nm) irradiation, MTS-PMS reagent; assay type: cell-based
# Description: HeLa cells were seeded in wells of a 96-well plate each containing 100 μl of a culture medium at 5×10^3 /well, and incubated at 37° C. overnight. In each well, the culture medium was removed, and 100 μl of a solution containing sodium salt of either of compound (I) or compound (II) in concentrations of 0, 6.25, 12.5, 25, 50 and 100 μM/ml was added (3 wells for each group of the concentrations) and incubated at 37° C. at for 6 hrs. Each well was washed with PBS(-) once, and then 100 μl of a fresh medium was added. The wells were irradiated using a diode laser (670 nm) under the conditions of 0.44W of laser intensity, 0.785 cm^2 of irradiation area (diameter: 1 cm) and 25 J/cm^2 of laser energy. After the irradiation, each well was incubated at 37° C. overnight and washed with PBS(-) once, then 100 μl of a fresh medium was added. To each well was added 20 μl of MTS-PMS reagent, and the well was further incubated at 37° C. for 2-4 hrs. The absorbance of each well at 492 nm was measured using a microplate reader. The cell survival rate at each of the above mentioned concentrations of the test compound was calculated considering the value for the well of 0 μM/ml of the test compound as 100%.
# [5] = Absorption wavelength / molar absorption coefficient; assay type: physicochemical
# [6] = Phosphorescence life time; assay type: physicochemical
# [7] = system: albumin; experiment: Albumin test (change in UV absorption spectrum in mixture with albumin); assay type: binding
# From the text: (§1) When compound (I) was examined by albumin test [that is, a convenient test method for evaluating the affinity to cancerous tissues, in which a chlorin derivative is examined on the change in ultraviolet (UV) absorption spectrum in a mixture form with albumin and in which one of the present inventors has found a certain rule] and dancyl methionine test [that is, a convenient test method for evaluating the strength of the photoreactivity by thin layer chromatography (TLC) or high performance liquid chromatography (HPLC)]
# [8] = Dancyl methionine test (photoreactivity by TLC or HPLC)
# From the text: as §1
# [9] = system: choroidal arteries and veins; experiment: Occlusion of choroidal arteries and veins by PDT, histological findings 24 hours after laser irradiation; assay type: in vivo, rats (Long Evance Rats); conditions: 16 mg/kg
# Description: (§2) The following experiments were performed to investigate the optimal treatment parameters (timing of laser irradiation after dosing of the compound; laser irradiation dosage) for selective occlusion of choroidal neoplastic vessels by PDT using the compound of the present invention and a diode laser (produced by Hamamatsu Photonics; wavelength: 672 nm).
# (§3) Photocoagulation was induced in rats (Long Evance Rats weighing 200-300 g) by Argon green laser irradiation (irradiation diameter: 100 μm, 140 mW, 0.1 sec) near the retinal papilla on funduc oculi. Ten days after photocoagulation, fundus photographs and fluorescein angiographs were taken and the animals showing development of choroidal neovascularization were used for experiments at the 11th day.
# (§4) The compound of the present invention was administered via the tail vein at a dose of 16 mg/kg. After administration, time course distribution of the compound in the eyeball tissues was observed by fluorescence microscopy.
# (§5) Laser irradiation was done by using the above-mentioned diode laser. The laser beam was confirmed to extend in the range of 500 μm in diameter on the retinal surface. Duration of irradiation was 4 minutes and the irradiation intensity varied at 30.6, 91.7, 152.9 and 244.9 mW/cm^2 on the retinal surface. These values correspond to 7.4, 22.0, 36.7 and 58.8 J/cm^2, respectively.
# (§6) Assessment of the PDT using the compound of the present invention was made based on the fundus photographs taken with a fundus camera (produced by Jenesis Kowa) at 1 hour and 24 hours after laser irradiation. Occlusion of the neoplastic vessels and damage to the surrounding tissues were investigated by fluorescein antiography and histological examinations to assess the selectivity of the therapeutic effect.
# [10] = Preliminary experiments: blood half-life after intravenous administration; assay type: in vivo; conditions: rats and rabbits
# [11] = system: choroidal neoplastic vessels; experiment: Occlusion of choroidal neoplastic vessels by PDT, histological findings 24 hours after laser irradiation; assay type: in vivo, rats (Long Evance Rats); conditions: for Occlusion of choroidal neoplastic vessels: 16 mg/kg
# Description: as §2, §3, §4, §5, §6
# [12] = system: eyeball tissues; experiment: Time course distribution of the compound in eyeball tissues by fluorescence microscopy; assay type: in vivo, rats (Long Evance Rats); conditions: 16 mg/kg tail vein
# Description: as §3, §4
# [13] = 7.4 J/cm^2, irradiation 60 min after administration
# [14] = 22.0 J/cm^2, irradiation 60 min after administration
# [15] = 22.0 J/cm^2, irradiation 120 min after administration
# [16] = 22.0 J/cm^2, irradiation 240 min after administration
# [17] = 36.7 J/cm^2, irradiation 60 min after administration
# [18] = 36.7 J/cm^2, irradiation 120 min after administration
# [19] = 36.7 J/cm^2, irradiation 240 min after administration
# [20] = 36.7 J/cm^2, irradiation immediately after administration
# [21] = 58.8 J/cm^2, irradiation 60 min after administration
# [22] = 58.8 J/cm^2, irradiation 120 min after administration
# [23] = 58.8 J/cm^2, irradiation 240 min after administration
# [24] = 58.8 J/cm^2, irradiation immediately after administration
structure (smiles),measurement,setting,value
C=Cc1c(C)c2cc3nc(cc4[nH]c(cc5nc(cc1[nH]2)C(C)=C5CCC(=O)NC(CC(=O)O)C(=O)O)c(CCC(=O)NC(CC(=O)O)C(=O)O)c4C)C(C)(O)C3=CC=NO (stereo not drawn) [Compound (I)],accumulability to cancerous tissues,[1]; compared with compound of formula (II),remarkably superior accumulability to cancerous tissues as compared with the compound of formula (II)
same,excretion from normal tissues,[1]; in vivo,quick excretion property from normal tissues
same,stability in vivo and in vitro,[2],"high stability in vivo, as well as in vitro"
same,water solubility,[3],good water solubility
same,solubility,"[3]; water, aqueous solution, read-out: high concentration solution (water solubility)",50 mg/mL
same,cell destructing effect induced by a photosensitizing reaction,[4],strong cell destructing effect induced by a photosensitizing reaction
same,viability at 6.25 µM,"[4]; Homo sapiens, HeLa, light or radiation study, 6.25 μM, sodium salt, 6 hrs, 670 nm, 25 J/cm^2, read-out: Cell Survival Rate",43%
same,viability at 12.5 µM,"[4]; Homo sapiens, HeLa, light or radiation study, 12.5 μM, sodium salt, 6 hrs, 670 nm, 25 J/cm^2, read-out: Cell Survival Rate",19%
same,viability at 25 µM,"[4]; Homo sapiens, HeLa, light or radiation study, 25 μM, sodium salt, 6 hrs, 670 nm, 25 J/cm^2, read-out: Cell Survival Rate",13%
same,viability at 50 µM,"[4]; Homo sapiens, HeLa, light or radiation study, 50 μM, sodium salt, 6 hrs, 670 nm, 25 J/cm^2, read-out: Cell Survival Rate",10%
same,viability at 100 µM,"[4]; Homo sapiens, HeLa, light or radiation study, 100 μM, sodium salt, 6 hrs, 670 nm, 25 J/cm^2, read-out: Cell Survival Rate",10%
same,cell killing effect against tumor cells,[4]; compared with position isomer,remarkably higher cell killing effect against tumor cells compared with the position isomer
same,longest wavelength absorption end,[5],≥ 670 nm
same,phosphorescence life time,[6],long phosphorescence life time
same,affinity to albumin,[7],good affinity to albumin
same,transferability to cancerous tissues (albumin test),[7],excellent transferability to cancerous tissues
same,photosensitivity (dancyl methionine test),[8],strong photosensitivity
same,cell killing effect when exposed to light,[8]; dancyl methionine test,good cell killing effect when exposed to light
same,Occlusion of choroidal arteries and veins,[9]; [13],Closed
same,Occlusion of choroidal arteries and veins,"[9]; 7.4 J/cm^2, irradiation 120 min after administration",Open
same,Occlusion of choroidal arteries and veins,"[9]; 7.4 J/cm^2, irradiation 240 min after administration",Open
same,Occlusion of choroidal arteries and veins,[9]; [14],Closed
same,Occlusion of choroidal arteries and veins,[9]; [15],Open
same,Occlusion of choroidal arteries and veins,[9]; [16],Open
same,Occlusion of choroidal arteries and veins,[9]; [17],Closed
same,Occlusion of choroidal arteries and veins,[9]; [18],Open
same,Occlusion of choroidal arteries and veins,[9]; [19],Open
same,Occlusion of choroidal arteries and veins,[9]; [20],Closed
same,Occlusion of choroidal arteries and veins,[9]; [21],Closed
same,Occlusion of choroidal arteries and veins,[9]; [22],Open
same,Occlusion of choroidal arteries and veins,[9]; [23],Open
same,Occlusion of choroidal arteries and veins,[9]; [24],Closed
same,compound in blood,"[10]; after 24 hours, intravenous",undetectable in blood after 24 hours
same,half-life,"[10]; blood, intravenous administration",30 min
same,Occlusion of choroidal neoplastic vessels,[11]; [13],Closed
same,Occlusion of choroidal neoplastic vessels,"[11]; 7.4 J/cm^2, irradiation immediately after administration",Closed
same,selective occlusion of choroidal neoplastic vessels and choriocapillaris,[11]; 7.4 J/cm^2 immediately after administration,selective occlusion of the choroidal neoplastic vessels and choriocapillaris was achieved without causing serious damage to the retinal capillaries and choroidal arteries and veins
same,Occlusion of choroidal neoplastic vessels,[11]; [14],Closed
same,Occlusion of choroidal neoplastic vessels,[11]; [15],Closed
same,Occlusion of choroidal neoplastic vessels,[11]; [16],Closed
same,Occlusion of choroidal neoplastic vessels,"[11]; 22.0 J/cm^2, irradiation immediately after administration",Closed
same,selective occlusion of choroidal neoplastic vessels and choriocapillaris,[11]; 22.0 J/cm^2 at 2-4 hours after administration,selective occlusion of the choroidal neoplastic vessels and choriocapillaris was achieved without causing serious damage to the retinal capillaries and choroidal arteries and veins
same,Occlusion of choroidal neoplastic vessels,[11]; [17],Closed
same,Occlusion of choroidal neoplastic vessels,[11]; [18],Closed
same,Occlusion of choroidal neoplastic vessels,[11]; [19],Closed
same,Occlusion of choroidal neoplastic vessels,[11]; [20],Closed
same,Occlusion of choroidal neoplastic vessels,[11]; [21],Cldsed
same,Occlusion of choroidal neoplastic vessels,[11]; [22],Closed
same,Occlusion of choroidal neoplastic vessels,[11]; [23],Closed
same,Occlusion of choroidal neoplastic vessels,[11]; [24],Closed
same,"fluorescence in choroid, lumens of choriocapillaris, choroidal arteries and veins",[12]; 5 minutes after administration,"fluorescence was observed in the lumens of the choriocapillaris, choroidal arteries and veins"
same,fluorescence in choroidal artery wall,[12]; 5 minutes after administration,also observed in the choroidal artery wall
same,"fluorescence in retina, artery wall",[12]; 5 minutes after administration,prominent fluorescence was observed in the artery wall
same,"fluorescence in retina, lumens of the blood capillaries",[12]; 5 minutes after administration,weak fluorescence was observed in the lumens of the blood capillaries
same,fluorescence in the entire choroidal neovascular tissues,[12]; 5 minutes after administration,weak fluorescence
same,"fluorescence intensity, neoplastic vessels versus surrounding tissues",[12]; 5 minutes after administration,did not clearly differ between the neoplastic vessels and the surrounding tissues
same,fluorescence from the whole neoplastic vessels,[12]; 30 minutes to 1 hour after administration,fluorescence from the whole neoplastic vessels increased
same,fluorescence in choroidal artery wall,[12]; 2 hours after administration,prominent fluorescence was observed in the choroidal artery wall
same,fluorescence in lumens of large choroidal vessels and retinal artery wall,[12]; 2 hours after administration,diminished
same,fluorescence in the choriocapillaris veins,[12]; 2 hours after administration,disappeared
same,fluorescence in choroidal artery wall and retinal vessels,[12]; 4 hours after administration,gradually diminished
same,fluorescence in the choroidal neoplastic vessels,[12]; 4 hours after administration,persisted
same,fluorescence in choroidal neoplastic vessels and other vessels,[12]; 24 hours after administration,all disappeared
